# Measurements from patent US12558353B2 (CELLTAXIS, LLC, priority 2018, dated 2026).
# “Also recorded” adds a separate entry of the source.
# Legend:
# [1] = Phase I studies; cited from earlier work
# [2] = system: adult patients with cystic fibrosis; test: EMPIRE-CF: safety and tolerability; assay type: in vivo, human; settings: 48 weeks
# Source text: Treatment-emergent adverse events (TEAEs), including serious adverse events, were collected at each visit, and summarized by MEDRA system organ class and preferred term, severity, and relatedness to the study drug. An independent data monitoring committee monitored the safety and study conduct at approximately 8-week intervals.
# [3] = system: sputum neutrophils, sputum elastase, C-reactive protein, sputum LTB4; settings: cited from earlier work
# LTB4 production = settings: cited from earlier work
# [4] = in vivo; cited from earlier work
# [5] = system: sputum neutrophil elastase, sputum neutrophil DNA, serum high-sensitivity C-reactive protein; test: EMPIRE-CF: biomarkers (sputum DNA and elastase, serum hs-CRP); assay type: in vivo, human; settings: compared with reductions seen in phase 1 trial
# Method: Pulmonary exacerbations were analyzed both as the time to first pulmonary exacerbation and the rate of pulmonary exacerbations. The time to first protocol defined-pulmonary exacerbation were analyzed using a Cox proportional hazards model. The number of protocol-defined pulmonary exacerbations reported through the Week 48/Early Termination visit were annualized (where a year was defined as 52 weeks) analyzed using a negative binomial regression. The two active doses were compared to placebo individually as well as pooled together using a contrast statement similar to that used for the primary analysis. Point estimates, standard errors, and 95% CIs for the mean of number of pulmonary exacerbations were presented. The difference in means between each CTX-4430 group from placebo were presented along with standard errors and 95% CIs. Spirometry-based endpoints were analyzed using the same methods as the primary endpoint. Analyses of sputum DNA and elastase and serum high-sensitivity C-reactive protein were based upon descriptive statistics by treatment group.
# [6] = system: adult patients with cystic fibrosis; test: EMPIRE-CF: absolute change from baseline in FEV1pp (spirometry); assay type: in vivo, human; settings: 48 weeks of therapy
# Method: The primary endpoints were absolute change from baseline in FEV1pp and safety outcomes. Secondary endpoints included rate of pulmonary exacerbations and time to first pulmonary exacerbation, and the effects on biomarkers of lung and systemic inflammation. Analyses are described in section entitled “Analysis.”
# Spirometry data were recorded at screening and baseline; all other spirometric measurements at subsequent visits are ideally recorded within ±1 h of the baseline visit measurement. All tests met American Thoracic Society/European Respiratory Society criteria for quality (acceptability, reproducibility, and end of test criteria) [Miller et al., 2005]. To ensure consistency of measurement, spirometry measurements were ideally performed by the same researcher and the patient coached to use maximum effort at every attempt. Patients were able to take all of their concomitant medications according to their regular schedule; however, they were to refrain from using short-acting bronchodilators within 4 h of the scheduled spirometry time, and long-acting bronchodilators within 12-24 h of the scheduled spirometry time.
# The primary analysis was based upon an analysis of variance (ANOVA) in which the average of the Week 48 change from baseline in FEV1pp for the two acebilustat doses was compared to that in the placebo group. […]
# [7] = once-daily, adult patients with CF
smiles,measurement,setting,value
"O=C(O)c1ccc(CN2C[C@@H]3C[C@H]2CN3Cc2ccc(Oc3ccc(-c4ncco4)cc3)cc2)cc1 [acebilustat, 4-{[(1S,4S)-5-({4-[4-oxazol-2-yl-phenoxy]phenyl}methyl)-2,5-diazabicyclo[2.2.1]heptan-2-yl]methyl}benzoic acid]",drug-related serious adverse events,[1],no drug-related serious AEs
same,tolerability,[1],well tolerated
same,severity of the majority of adverse events,[2],mild or moderate
same,tolerability and risk of infection,[2],safe and well tolerated
same,tolerability and risk of infection,[2]; listed as Acebilustat,well tolerated with no increased risk of infection
same,C-reactive protein,[3]; acebilustat treated groups,Numerical reductions
same,reduction of sputum elastase levels,[3]; [7],up to 58%
same,reduction of sputum neutrophil levels,[3]; [7],up to 65%
same,"sputum LTB4 levels, acebilustat- vs placebo-treated patients",[3]; patients with CF,decreased significantly
same,peak reduction in LTB4 production,LTB4 production; 50 mg dose,~75%
same,reduction of serum LTB4 production,"LTB4 production; 100 mg dose, near-maximum",86%
same,"AUC0-24 at steady state, fed vs fasting",[4],no differences
same,"Cmax or AUC0-24, healthy volunteers versus patients with CF",[4],No significant differences
same,"sputum neutrophil elastase, sputum neutrophil DNA and serum hs-CRP versus placebo",[5],did not observe similar changes
same,absolute change in FEV1pp from baseline at Week 48 versus placebo (primary endpoint),[6],not different from placebo; also recorded: did not separate from placebo; also recorded: No difference between acebilustat and placebo
